Source: publication PMC10320005, “In Campylobacter jejuni, a new type of chaperone receives heme from ferrochelatase” (Frontiers in Genetics, 2023)

How the values were obtained:
[1] = target: T1, PgdH2 (Cj0362) (Campylobacter jejuni, UniProt Q0PBE8); test: fluorescence of protoporphyrin IX ([…] nm) with E. coli membrane fraction versus empty plasmid; format: biochemical; details: 500 nM proto'gen IX, 150 mM NaCl, 20% glycerol, 5 mM DTT, Tris-HCl pH 8, aerobic
T1 construct: expressed from pPR-IBA2 (Strep-tag vector) in E. coli BL21STAR(DE3)pLysS; membrane fraction, not purified
T1 sequence (Q0PBE8 1-150): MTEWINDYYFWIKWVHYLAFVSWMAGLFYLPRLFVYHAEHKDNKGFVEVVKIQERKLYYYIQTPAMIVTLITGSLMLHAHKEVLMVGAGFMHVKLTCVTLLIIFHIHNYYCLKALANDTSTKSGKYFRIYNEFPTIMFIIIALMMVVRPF

[2] = target: T2, CgdH2 (Cj0363c) (Campylobacter jejuni, UniProt Q0PBE7); test: UV-visible titration of apo-protein, absorbance difference at […] nm; format: binding
T2 construct: gene hemN; full length (448 residues; 447 aa in Discussion), C-terminal His-tag (pET-23b), E. coli BL21STAR(DE3)pLysS; apo-form without Fe-S cluster
T2 sequence (Q0PBE7 1-448): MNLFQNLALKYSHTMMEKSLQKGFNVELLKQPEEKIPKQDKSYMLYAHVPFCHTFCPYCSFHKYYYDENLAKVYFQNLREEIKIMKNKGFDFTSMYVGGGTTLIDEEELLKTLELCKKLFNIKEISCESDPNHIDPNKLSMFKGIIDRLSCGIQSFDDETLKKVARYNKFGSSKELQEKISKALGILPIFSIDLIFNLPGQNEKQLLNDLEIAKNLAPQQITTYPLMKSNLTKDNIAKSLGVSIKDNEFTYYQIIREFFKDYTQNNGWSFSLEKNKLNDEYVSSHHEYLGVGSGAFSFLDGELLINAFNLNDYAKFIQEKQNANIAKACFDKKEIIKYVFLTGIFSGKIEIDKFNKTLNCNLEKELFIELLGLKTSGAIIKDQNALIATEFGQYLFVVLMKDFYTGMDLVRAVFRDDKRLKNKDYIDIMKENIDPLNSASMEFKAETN

[3] = target: T3, UroD (Cj1243) (Campylobacter jejuni, UniProt Q9PN54); test: linked assay, UV-visible spectroscopy and HPLC-MS of coproporphyrin III; format: biochemical; details: uro'gen III made in situ from porphobilinogen with D. vulgaris PbgS and UroS; Tris-HCl pH 8, anaerobic, overnight
T3 construct: gene hemE; N-terminal Strep-tag (pPR-IBA2), E. coli BL21STAR(DE3)pLysS
T3 sequence (Q9PN54 1-340): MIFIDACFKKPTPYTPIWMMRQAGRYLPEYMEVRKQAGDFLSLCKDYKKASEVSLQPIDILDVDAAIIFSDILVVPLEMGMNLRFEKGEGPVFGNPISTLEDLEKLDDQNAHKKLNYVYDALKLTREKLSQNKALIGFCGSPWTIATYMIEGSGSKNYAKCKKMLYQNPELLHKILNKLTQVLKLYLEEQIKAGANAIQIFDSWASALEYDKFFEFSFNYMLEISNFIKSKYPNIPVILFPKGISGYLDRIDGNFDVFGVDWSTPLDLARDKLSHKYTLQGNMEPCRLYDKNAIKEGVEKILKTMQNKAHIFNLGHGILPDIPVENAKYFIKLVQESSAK

[4] = target: T4, CgdH1 (Cj0992c) (Campylobacter jejuni, UniProt Q0P9R0); test: HPLC-MS of porphyrin products; format: biochemical; details: 10 µM copro'gen III, 1 mM SAM, 0.5 mM NADH, E. coli cell extract added, anaerobic, overnight, room temperature; incomplete reaction via harderoporphyrin intermediate
T4 construct: full length (451 residues), C-terminal His-tag (pET-23b), E. coli BL21STAR(DE3)pLysS; Fe-S cluster reconstituted
T4 sequence (Q0P9R0 1-451): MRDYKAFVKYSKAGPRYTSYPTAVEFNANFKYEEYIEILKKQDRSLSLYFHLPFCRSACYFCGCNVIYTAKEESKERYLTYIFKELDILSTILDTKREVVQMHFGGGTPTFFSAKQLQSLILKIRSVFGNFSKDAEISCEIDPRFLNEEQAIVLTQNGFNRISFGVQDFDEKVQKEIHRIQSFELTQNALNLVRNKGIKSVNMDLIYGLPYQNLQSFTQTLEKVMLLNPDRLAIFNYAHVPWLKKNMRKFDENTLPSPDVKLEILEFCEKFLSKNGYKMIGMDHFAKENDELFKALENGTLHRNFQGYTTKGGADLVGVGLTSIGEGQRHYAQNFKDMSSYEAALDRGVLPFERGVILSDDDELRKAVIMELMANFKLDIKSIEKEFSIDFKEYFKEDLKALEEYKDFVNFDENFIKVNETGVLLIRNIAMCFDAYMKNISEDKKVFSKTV

[5] = target: T5, PpfC (Cj0503c) (Campylobacter jejuni, UniProt Q9PI08); test: ferrochelatase activity, decrease of protoporphyrin IX at […] nm; format: biochemical; details: 10 µM protoporphyrin IX, 20 µM (NH4)2Fe(SO4)2, 5 mM DTT, 150 mM NaCl, 20% glycerol, Tris-HCl pH 8, anaerobic, room temperature
T5 construct: gene hemH; N-terminal Strep-tag (pPR-IBA2), E. coli BL21STAR(DE3)pLysS, solubilised with Triton X-100
T5 sequence (Q9PI08 1-303): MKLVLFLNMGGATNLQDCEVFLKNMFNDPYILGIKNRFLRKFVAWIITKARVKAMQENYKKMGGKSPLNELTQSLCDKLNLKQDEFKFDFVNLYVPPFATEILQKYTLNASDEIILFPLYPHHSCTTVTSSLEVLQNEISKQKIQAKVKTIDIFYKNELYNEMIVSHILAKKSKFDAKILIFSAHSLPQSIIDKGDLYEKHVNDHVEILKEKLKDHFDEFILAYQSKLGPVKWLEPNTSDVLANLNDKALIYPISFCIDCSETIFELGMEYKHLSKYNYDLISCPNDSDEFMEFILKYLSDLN

C=Cc1c2[nH]c(c1C)Cc1[nH]c(c(CCC(=O)O)c1C)Cc1[nH]c(c(C)c1CCC(=O)O)Cc1[nH]c(c(C)c1C=C)C2 [proto'gen IX]
fluorescence of protoporphyrin IX (390/630 nm) with E. coli membrane fraction ve [1]: Cells containing Cj0362 exhibited much higher activity for the oxidation of proto'gen IX

C=CC1=C(C)C2=Cc3c(C=C)c(C)c4[n]3[Fe]([Cl])[n]3c(c(C)c(CCC(=O)O)c3=CC3=NC(=C4)C(C)=C3CCC(=O)O)=CC1=N2 [hemin]
Kd [2]: 4.9 ± 1 µM

O=C(O)CCc1c2[nH]c(c1CC(=O)O)Cc1[nH]c(c(CC(=O)O)c1CCC(=O)O)Cc1[nH]c(c(CC(=O)O)c1CCC(=O)O)Cc1[nH]c(c(CCC(=O)O)c1CC(=O)O)C2 [uro'gen III]
linked assay, UV-visible spectroscopy and HPLC-MS of coproporphyrin III [3]: confirmed the formation of copro'gen III

Cc1c2[nH]c(c1CCC(=O)O)Cc1[nH]c(c(CCC(=O)O)c1C)Cc1[nH]c(c(CCC(=O)O)c1C)Cc1[nH]c(c(C)c1CCC(=O)O)C2 [copro'gen III]
HPLC-MS of porphyrin products [4]: The expected final reactional product, protoporphyrin IX (the oxidized form of proto'gen IX), was observed

C=CC1=C(C)c2cc3[nH]c(cc4nc(cc5[nH]c(cc1n2)c(C)c5CCC(=O)O)C(CCC(=O)O)=C4C)c(C)c3C=C [protoporphyrin IX]
ferrochelatase activity, decrease of protoporphyrin IX at 408 nm [5]: C. jejuni Cj0503c exhibits a ferrochelatase specific activity
